{"source": "patent US20080312331A1", "about": "“Method of Treating Dailysis-Induced Hypotension” (SOLAPHARM, INC., priority 2005, published 2008)", "experiment": "Hemodialysis session in a patient with end-stage renal disease who regularly develops hypotension during dialysis (Example 2)", "type": "in vivo", "protocol": "A patient with end-stage renal disease is scheduled for hemodialysis at 11 AM. The patient's resting blood pressure is 130/80 mm Hg. At 10:40 AM the day of the 11 AM hemodialysis, the patient swallows a tablet comprising 16 mg of desglymidodrine (approximately equal in activity to 20 mg of midodrine).\nIn a subsequent dialysis day, the patient swallows a desglymidodrine 16 mg. tablet 20 minutes before the onset of dialysis. […] Intravenous desglymidodrine is then promptly administered by a nurse by a push infusion at a dose of 8 mg.", "note": "“Also recorded” adds a separate entry of the source."}
{"smiles": "COc1ccc(OC)c(C(O)CN)c1", "note": "(stereo not drawn) [desglymidodrine]", "values": [{"measurement": "blood pressure after treatment of intradialytic hypotension", "setting": "8 mg intravenous push infusion after hypotension developed one hour into the dialysis session", "result": "blood pressure normalizes"}, {"measurement": "adverse symptoms during hemodialysis", "setting": "end-stage renal disease patient, 16 mg tablet swallowed 20 minutes before hemodialysis", "result": "no adverse symptoms are exhibited"}, {"measurement": "blood pressure during hemodialysis", "setting": "end-stage renal disease patient, 16 mg tablet swallowed 20 minutes before onset of hemodialysis", "result": "blood pressure stays stable; also recorded: develops hypotension"}]}
